The assay deals with human GPR120 (Homo sapiens (Human), UniProt Q5NUL3). Put plainly: FLIPR assay: intracellular calcium in CHO cells expressing human GPR120. In kind it is cell-based. To be noted: FLIPR calcium assay, CHO cells expressing human GPR120, agonist action. As for the experimental part:
All compounds were tested under the FLIPR assay unless otherwise indicated.
Primers were synthesized in the domains on the opposite sides of the base sequences of the ORFs of the known GPCR and GPR120 in GenBank Accession NOs. […] The base sequences of the primers used are described below. The restriction enzymes, BamHI and EcoRI, recognition sites were introduced for subcloning, respectively.
As samples for PCR, human small intestine Marathon-ready cDNA (CLONTECH, current corporate name: TaKaRa) and cDMA obtained by reverse transcription of mouse BAT-derived RNA were used for human and mouse GPR120 receptor genes, respectively.
Using KOD Plus (TOYOBO) for PCR, 30 cycles of 94° C. for 2 minutes, 94° C. for 15 seconds, 55° C. for 30 seconds and 68° C. for 1 minute were carried out to effect reaction, followed by addition of 0.5 units of ExTaq (TaKaRa) and incubation at 72° C. for 10 minutes to carry out A-addition reaction to terminals. For mouse PCR, 35 cycles were carried out on the condition of a final DMSO concentration of 2%.
Cloning of amplified PCR products was carried out using pCR2.1-TOPO TA cloning kit (Invitrogen). For verification of base sequences, electrophoresis was carried out using BigDye Terminator Cycle Sequencing Ready Reaction Kit Ver.
The GPR120 receptor genes cloned into pCR2.1-TOPO vectors, into which the restriction enzymes, BamHI and EcoRI, recognition sites were introduced, were excised from the vectors by the enzymes and subcloned into the BamHI and EcoRI recognition sites of eukaryotic expression vector EF1/V5-His B (Invitrogen).
Test 2: Production of Expression Cells
Using Lipofectamine 2000 (Invitrogen), cDNA of GPR120 receptor was transfected into CHO/NFAT-BLA cells, and drug-resistant cells were isolated to obtain GPR120 stable expression strains. The GPR120-expressed CHO cells were cultured in DMEM/F12 medium containing 10% fetal bovine serum, 100 units/ml penicillin, 0.1 mg/ml streptomycin sulfate, 250 μg/ml Zeocin, 500 μg/mL Geneticin and 15 mM HEPES.
Test 3: Measurement of Intracellular Calcium Concentration
To the cells was added the test compound diluted with HBSS solution containing 20 mM HEPES and 2.5 mM probenecid. Variations in the intracellular calcium concentration were measured by Fluorescence Imaging Plate Reader (FLIPR; Molecular Devices) to examine the agonist action, and EC50 values were calculated. […]

Chain of human GPR120 (Q5NUL3 whole entry): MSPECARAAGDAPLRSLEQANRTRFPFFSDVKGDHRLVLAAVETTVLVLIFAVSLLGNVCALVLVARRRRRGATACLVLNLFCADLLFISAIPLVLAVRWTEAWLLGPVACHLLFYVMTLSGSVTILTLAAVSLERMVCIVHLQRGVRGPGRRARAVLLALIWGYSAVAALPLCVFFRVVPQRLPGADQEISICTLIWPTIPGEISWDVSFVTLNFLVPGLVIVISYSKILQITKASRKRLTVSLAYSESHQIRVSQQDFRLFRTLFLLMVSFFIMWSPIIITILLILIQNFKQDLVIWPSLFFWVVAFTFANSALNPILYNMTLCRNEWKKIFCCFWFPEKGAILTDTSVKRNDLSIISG

Take `FC(F)(F)Oc1ccc(Cl)c(N2CCC3(CCC(Cc4nn[nH]n4)CO3)CC2)c1` (racemic) [Example 92, 3-((2H-tetrazol-5-yl)methyl)-9-(2-chloro-5-(trifluoromethoxy)phenyl)-1-oxa-9-azaspiro[5.5]undecane]: the EC50 was determined as 2630 nM.
Consider `O=C(O)CC1COC2(CCN(c3cc(OC(F)(F)F)ccc3F)CC2)C1` (racemic) [Example 94, 2-(8-(2-fluoro-5-(trifluoromethoxy)phenyl)-1-oxa-8-azaspiro[4.5]decan-3-yl)acetic acid], for which the EC50 turned out to be 1480 nM.
For `CC1CC(CC(=O)O)CCC12CCN(c1cc(OC(F)(F)F)ccc1Cl)CC2` (single isomer, unassigned) [Example 89a, 2-(3-(2-Chloro-5-(trifluoromethoxy)phenyl)-7-methyl-3-azaspiro[5.5]undecan-9-yl)acetic acid] the value was 2760 nM; for `CC1CC(CC(=O)O)CCC12CCN(c1cc(OC(F)(F)F)ccc1Cl)CC2` (single isomer, unassigned) [Example 89b, 2-(3-(2-Chloro-5-(trifluoromethoxy)phenyl)-7-methyl-3-azaspiro[5.5]undecan-9-yl)acetic acid], 3130 nM; for `CC1CC(CC(=O)O)CCC12CCN(c1cc(OC(F)(F)F)ccc1Cl)CC2` (single isomer, unassigned) [Example 89c, 2-(3-(2-Chloro-5-(trifluoromethoxy)phenyl)-7-methyl-3-azaspiro[5.5]undecan-9-yl)acetic acid], 2490 nM.
The value for `O=C(O)CC1CCC2(CCN(c3cc(OC(F)(F)F)ccc3Cl)CC2)OC1` (single isomer, unassigned) [Example 91A, (S)-2-(9-(2-chloro-5-(trifluoromethoxy)phenyl)-1-oxa-9-azaspiro[5.5]undecan-3-yl)acetic acid or (R)-2-(9-(2-chloro-5-(trifluoromethoxy)phenyl)-1-oxa-9-azaspiro[5.5]undecan-3-yl)acetic acid] was 636 nM; that for `O=C(O)CC1CCC2(CCN(c3cc(OC(F)(F)F)ccc3Cl)CC2)OC1` (single isomer, unassigned) [Example 91B, (S)-2-(9-(2-chloro-5-(trifluoromethoxy)phenyl)-1-oxa-9-azaspiro[5.5]undecan-3-yl)acetic acid or (R)-2-(9-(2-chloro-5-(trifluoromethoxy)phenyl)-1-oxa-9-azaspiro[5.5]undecan-3-yl)acetic acid] was 1020 nM.
For `O=C(O)C[C@@H]1CCC2(CCN(c3cc(OC(F)(F)F)ccc3F)CC2)OC1` (single isomer, unassigned) [Example 93a, (R) or (S) 2-(9-(2-fluoro-5-(trifluoromethoxy)phenyl)-1-oxa-9-azaspiro[5.5]undecan-3-yl)acetic acid] the value was 1300 nM; for `O=C(O)C[C@@H]1CCC2(CCN(c3cc(OC(F)(F)F)ccc3F)CC2)OC1` (single isomer, unassigned) [Example 93b, (R) or (S) 2-(9-(2-fluoro-5-(trifluoromethoxy)phenyl)-1-oxa-9-azaspiro[5.5]undecan-3-yl)acetic acid], 750 nM; for `O=C(O)CC1CCC2(CC1)CCN(c1cc(C(F)(F)F)ccc1Cl)CC2` [Example 2, 2-(3-(2-chloro-5-(trifluoromethyl)phenyl)-3-azaspiro[5.5]undecan-9-y)acetic acid], 900 nM.
For the compound `CC(C(=O)O)C1CCC2(CC1)CCN(c1cc(OC(F)(F)F)ccc1Cl)CC2` (centres unmarked) [Example 3, 2-(3-(2-chloro-5-(trifluoromethoxy)phenyl)-3-azaspiro[5.5]undecan-9-yl)propanoic acid], the EC50 was 3400 nM.
For `O=C(O)CC1CCC2(CC1)CCN(c1cc(OC3CCCC3)ccc1Cl)CC2` [Example 5, 2-(3-(2-chloro-5-(cyclopentyloxy)phenyl)-3-azaspiro[5.5]undecan-9-yl)acetic acid] the value was 1100 nM; for `COc1cc(F)c(N2CCC3(CCC(CC(=O)O)CC3)CC2)cc1F` [Example 6], 2420 nM; for `O=C(O)CC1CCC2(CC1)CCN(c1cc(OC(F)(F)F)ccc1F)CC2` [Example 7], 410 nM.

Usually EC50 stands for the concentration that produces a half-maximal response.

The values are drawn from patent US9708270B2, “Substituted spiropiperidinyl compounds useful as GPR120 agonists” (Merck Sharp & Dohme Corp., priority 2012, dated 2017).
